According to ChEMBL document CHEMBL5108067, “Discovery of Potent OTUB1/USP8 Dual Inhibitors Targeting Proteostasis in Non-Small-Cell Lung Cancer” (J Med Chem, 2022):
The source made the active and inactive calls. The rule behind the calls is not given here.

Tests used:
[1] = molecular target: T1, Ubiquitin thioesterase OTUB1 (Homo sapiens, UniProt Q96FW1); assay: Inhibition of N-terminal His-6 tagged OTUB1 (40 to 271 residues) (unknown origin) expressed in Escherichia coli BL21 (DE3) cells at 100 nM using Ub-Rho measured after 0.5 to 3 hrs by fluorescence based Plate reader method relative to control; details: time 0.5-3 hrs, values are per cent of control
T1 sequence (Q96FW1 whole entry, the tested form may be a part): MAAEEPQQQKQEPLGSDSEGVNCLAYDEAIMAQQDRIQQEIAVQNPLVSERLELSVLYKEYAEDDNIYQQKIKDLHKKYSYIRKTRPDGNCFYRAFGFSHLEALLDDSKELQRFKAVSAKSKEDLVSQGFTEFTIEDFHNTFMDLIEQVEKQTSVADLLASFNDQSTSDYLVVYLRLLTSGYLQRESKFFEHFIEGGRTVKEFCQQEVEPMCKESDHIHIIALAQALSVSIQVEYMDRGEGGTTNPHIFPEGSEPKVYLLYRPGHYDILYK

[2] = molecular target: T1, Ubiquitin thioesterase OTUB1; assay: Inhibition of N-terminal His-6 tagged OTUB1 (40 to 271 residues) (unknown origin) expressed in Escherichia coli BL21 (DE3) cells at 10 nM using Ub-Rho measured after 0.5 to 3 hrs by fluorescence based Plate reader method relative to control; details: time 0.5-3 hrs, values are per cent of control
[3] = molecular target: T2, Ubiquitin carboxyl-terminal hydrolase 8 (Homo sapiens) (UniProt P40818); assay: Inhibition of N-terminal His-6 tagged USP8 (734 to 1110 residues) (unknown origin) expressed in Escherichia coli BL21 (DE3) cells at 100 nM measured after 3 hrs by fluorescence based Plate reader method relative to control; details: values are per cent of control
T2 sequence (whole entry): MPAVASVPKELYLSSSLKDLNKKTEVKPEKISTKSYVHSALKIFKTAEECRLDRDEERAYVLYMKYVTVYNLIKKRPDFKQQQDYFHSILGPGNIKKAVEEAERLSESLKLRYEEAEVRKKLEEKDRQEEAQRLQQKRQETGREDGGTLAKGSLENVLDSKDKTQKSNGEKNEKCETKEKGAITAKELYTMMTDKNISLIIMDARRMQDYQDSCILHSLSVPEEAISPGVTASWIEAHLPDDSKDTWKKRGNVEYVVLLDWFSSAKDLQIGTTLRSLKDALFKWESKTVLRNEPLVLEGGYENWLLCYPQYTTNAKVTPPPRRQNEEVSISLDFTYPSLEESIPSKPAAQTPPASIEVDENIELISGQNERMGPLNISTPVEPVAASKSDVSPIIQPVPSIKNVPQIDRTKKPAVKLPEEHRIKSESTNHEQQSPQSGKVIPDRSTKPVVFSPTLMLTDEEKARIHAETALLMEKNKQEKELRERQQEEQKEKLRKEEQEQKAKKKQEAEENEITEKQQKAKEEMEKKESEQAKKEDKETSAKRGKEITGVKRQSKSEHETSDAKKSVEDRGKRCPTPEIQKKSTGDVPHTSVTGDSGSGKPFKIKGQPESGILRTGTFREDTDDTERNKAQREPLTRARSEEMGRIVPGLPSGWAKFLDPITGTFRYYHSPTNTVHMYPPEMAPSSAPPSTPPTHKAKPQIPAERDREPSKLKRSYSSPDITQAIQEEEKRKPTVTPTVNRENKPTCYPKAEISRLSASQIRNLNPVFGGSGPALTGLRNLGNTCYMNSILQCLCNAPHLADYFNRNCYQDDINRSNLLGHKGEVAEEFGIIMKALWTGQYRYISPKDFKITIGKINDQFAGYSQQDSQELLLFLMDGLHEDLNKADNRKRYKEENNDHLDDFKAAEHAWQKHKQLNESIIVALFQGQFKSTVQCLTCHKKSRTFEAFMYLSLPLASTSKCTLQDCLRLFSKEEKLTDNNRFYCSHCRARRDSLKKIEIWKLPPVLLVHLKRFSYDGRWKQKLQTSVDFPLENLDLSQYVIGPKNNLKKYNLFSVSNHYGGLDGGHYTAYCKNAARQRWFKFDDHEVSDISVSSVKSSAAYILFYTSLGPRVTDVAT

[4] = molecular target: T2, Ubiquitin carboxyl-terminal hydrolase 8 (Homo sapiens); assay: Inhibition of N-terminal His-6 tagged USP8 (734 to 1110 residues) (unknown origin) expressed in Escherichia coli BL21 (DE3) cells at 10 nM measured after 3 hrs by fluorescence based Plate reader method relative to control; details: values are per cent of control
[5] = Aqueous solubility of the compound measured after 24 hr by […] LC-MS/MS analysis; type: physicochemical; details: buffer
[6] = molecular target: T1, Ubiquitin thioesterase OTUB1; assay: Inhibition of N-terminal His-6 tagged OTUB1 (40 to 271 residues) (unknown origin) expressed in Escherichia coli BL21 (DE3) cells at […] using Ub-Rho measured after 0.5 to 3 hrs by fluorescence based Plate reader method relative to control; details: dose 2.5 µM, time 0.5-3 hrs
[7] = molecular target: T1, Ubiquitin thioesterase OTUB1; assay: Binding affinity to OTUB1 in HEK293T cells at 5 uM preincubated for 30 mins followed by UV irradiation and measured after 20 mins by Western blot assay; type: cell-based; details: time 50.0 min
[8] = molecular target: T1, Ubiquitin thioesterase OTUB1; assay: Inhibition of N-terminal His-6 tagged OTUB1 (40 to 271 residues) (unknown origin) expressed in Escherichia coli BL21 (DE3) cells using Ub-Rho measured after 0.5 to 3 hrs by fluorescence based Plate reader method
[9] = molecular target: T1, Ubiquitin thioesterase OTUB1; assay: Binding affinity to OTUB1 in HEK293T cells at […] preincubated for 30 mins followed by UV irradiation and measured after 20 mins by Western blot analysis; type: cell-based; details: dose 2.5 µM, time 50.0 min
[10] = molecular target: T1, Ubiquitin thioesterase OTUB1; assay: Binding affinity to OTUB1 in HEK293T cells at 1 uM preincubated for 2 hrs followed by UV irradiation and measured after 20 mins by silver staining based gel electrophoresis assay; type: cell-based; details: time 140.0 min
[11] = molecular target: T1, Ubiquitin thioesterase OTUB1; assay: Binding affinity to OTUB1 in HEK293T cells at 0.5 uM preincubated for 2 hrs followed by UV irradiation and measured after 20 mins by Western blot analysis; type: cell-based; details: time 140.0 min

residual activity [1] [%]	residual activity [2] [%]	residual activity [3] [%]	residual activity [4] [%]	solubility [5]	inhibition [6] [%]	Activity [7]	IC50 [8] [µM]	Activity [9]	Activity [10]	Activity [11]	SMILES
13.2	23.1	21.6	54.4	Insoluble	–	–	–	–	–	–	O=C1c2ccccc2C(=O)c2oc(-c3cccc(C(F)(F)F)c3)nc21
9.6	37.3	26.5	62.9	Insoluble	–	–	–	–	–	–	O=C1c2ccccc2C(=O)c2oc(-c3c(F)cccc3Cl)nc21
–	–	–	–	–	100	–	–	–	–	–	O=C1c2ccccc2C(=O)c2oc(-c3ccccc3)nc21
23.5	47.6	37.4	28.5	–	–	–	–	–	–	–	O=C1c2ccccc2C(=O)c2oc(-c3ccc(F)cc3Cl)nc21
10.4	23.3	28.4	52.4	Insoluble	–	–	–	–	–	–	O=C1c2ccccc2C(=O)c2oc(-c3c(F)ccc(F)c3Cl)nc21
19.4	44.5	19.3	34.7	–	–	–	–	–	–	–	O=C1c2ccccc2C(=O)c2oc(-c3ccc(F)cc3F)nc21
19.8	50.2	22.7	40.1	–	–	–	–	–	–	–	O=C1c2ccccc2C(=O)c2oc(-c3cccc(F)c3F)nc21
22.7	53.7	30.5	62.1	–	–	–	–	–	–	–	Cc1ccc(F)c(-c2nc3c(o2)C(=O)c2ccccc2C3=O)c1F
27.3	55.5	19.2	37.1	–	–	–	–	–	–	–	O=C1c2ccccc2C(=O)c2oc(-c3ccccc3F)nc21
48.4	66.4	38.1	63.6	–	–	–	–	–	–	–	Cc1ccccc1-c1nc2c(o1)C(=O)c1ccccc1C2=O
24.6	55.8	23.3	53.5	–	–	–	–	–	–	–	O=C1c2ccccc2C(=O)c2oc(-c3ccc(F)cc3)nc21
59.9	70.8	56.7	57.9	–	–	–	–	–	–	–	COc1cc(-c2nc3c(o2)C(=O)c2ccccc2C3=O)ccc1C
15.2	46.4	20.8	38.9	Insoluble	–	–	–	–	–	–	N#Cc1ccc(-c2nc3c(o2)C(=O)c2ccccc2C3=O)cc1

More lines, now with the values behind:

SMILES	residual activity [1] [%]	residual activity [2] [%]	residual activity [3] [%]	residual activity [4] [%]	solubility [5]	inhibition [6] [%]	Activity [7]	IC50 [8] [µM]	Activity [9]	Activity [10]	Activity [11]
CN1CCN(CCOc2ccc(Cl)c(-c3nc4c(o3)C(=O)c3ccccc3C4=O)c2F)CC1	7.2	14.4	32.6	33.1	Soluble	–	–	–	–	–	–
C#CCCC1(CCN2CC[C@@H](Oc3cccc(-c4nc5c([nH]4)C(=O)c4ccccc4C5=O)c3)C2)N=N1	–	–	–	–	–	–	Active	6.12	–	–	–
CN1CC[C@@H](Oc2cc(-c3nc4c(o3)C(=O)c3ccccc3C4=O)ccc2Cl)C1	12.8	23.6	24.9	51.8	Soluble	–	–	–	–	–	–
CN1CC[C@H](Oc2cccc(-c3nc4c(o3)C(=O)c3ccccc3C4=O)c2)C1	38.7	75.6	29.8	60.2	–	–	–	–	–	–	–
C#CCCC1(CCN2CC[C@@H](Oc3cccc(-c4nc5c(o4)C(=O)c4ccccc4C5=O)c3)C2)N=N1	–	–	–	–	–	–	–	0.037	Active	Active	Active
COc1cc(O[C@@H]2CCN(C)C2)cc(-c2nc3c(o2)C(=O)c2ccccc2C3=O)c1	44.2	77.1	46.2	71.2	–	–	–	–	–	–	–
CN1CCN(CCOc2cc(Cl)cc(-c3nc4c(o3)C(=O)c3ccccc3C4=O)c2)CC1	36.3	77.3	27.9	58.8	–	–	–	–	–	–	–
COc1cc(OC)cc(-c2nc3c(o2)C(=O)c2ccccc2C3=O)c1	48.1	83.6	52.2	72.2	–	–	–	–	–	–	–
CN1CC[C@@H](Oc2ccc(-c3nc4c(o3)C(=O)c3ccccc3C4=O)c(Cl)c2)C1	35.1	70.9	34.7	58.9	–	–	–	–	–	–	–
O=C1c2ccccc2C(=O)c2[nH]c(-c3ccccc3)nc21	78.3	84.3	92.5	92.5	–	–	–	–	–	–	–
COc1cc(F)cc(-c2nc3c([nH]2)C(=O)c2ccccc2C3=O)c1	77.9	84.8	85.2	91.4	–	–	–	–	–	–	–
COc1ccc2c(c1)C(=O)c1nc(-c3cccc(OCCN(C)C)c3)[nH]c1C2=O	77.2	78.4	99.6	95.3	–	–	–	–	–	–	–
CN(C)CCOc1cccc(-c2nc3c(o2)C(=O)c2ccccc2C3=O)c1	28.7	66.7	31.7	60.4	–	–	–	–	–	–	–
O=C1c2ccccc2C(=O)c2oc(-c3cccc(OCCN4CCOCC4)c3)nc21	47.2	82.1	44.3	80	–	–	–	–	–	–	–
CN1CCN(CCOc2ccc(F)c(-c3nc4c(o3)C(=O)c3ccccc3C4=O)c2Cl)CC1	8.7	17	21.4	26.7	Soluble	–	–	–	–	–	–
